The source of these data is patent EP0350163A2, “Renin inhibitory peptides” (BEECHAM GROUP PLC, priority 1988, dated 1990).

Molecules are shown by their SMILES. pIC50: −log10 of the molar value. Where a name gives a salt, the structure may show the parent alone.

In this experiment the target is T1, human renin (Homo sapiens, UniProt P00797).
T1 construct: from tissue; host or cells: human plasma from the blood of healthy volunteers
T1 sequence (P00797 67-406): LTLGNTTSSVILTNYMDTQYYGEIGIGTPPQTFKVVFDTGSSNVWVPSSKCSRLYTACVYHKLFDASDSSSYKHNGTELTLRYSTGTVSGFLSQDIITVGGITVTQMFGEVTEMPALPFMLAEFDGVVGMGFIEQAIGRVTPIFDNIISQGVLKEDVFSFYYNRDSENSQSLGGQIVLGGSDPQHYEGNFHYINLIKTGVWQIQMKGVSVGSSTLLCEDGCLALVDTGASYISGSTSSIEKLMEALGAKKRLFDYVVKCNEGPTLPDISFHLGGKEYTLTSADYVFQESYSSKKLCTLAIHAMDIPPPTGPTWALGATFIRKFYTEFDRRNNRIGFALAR
The experiment can be described thus: In vitro human renin inhibition (renin activity in human plasma, angiotensin I radioimmunoassay). Format: biochemical. The settings on record: human plasma from healthy volunteers; angiotensin I difference between 37° and 4° for 2 h; linear regression of at least three concentrations; read-out: IC₅₀. How it is done: Renin inhibitory activity was estimated as the percentage change in renin activity in human plasma in the presence and absence of compound. The source of plasma was blood taken from healthy volunteers. Renin activity was defined by the difference in angiotensin I levels between two halves of a sample, one incubated at 37^o and the other at 4^o for 2 h. Angiotensin I levels were measured using a ¹²⁵I- angiotensin I radioimmunoassay kit (NEN/DuPont, Stevenage). Results were calculated as the mean of at least two, duplicate determinations and IC₅₀ values were calculated by linear regression analysis of at least three concentrations of compound.

Consider `COc1cccc2c1OCC2CC(=O)N[C@@H](Cc1ccccc1)C(=O)N[C@@H](CC(C)C)C(=O)N[C@@H](CC1CCCCC1)[C@@H](O)CC(=O)NCC(C)C` (stereo partly drawn) [E 3, 4-(S)-((7-Methoxy-2,3-dihydrobenzofuran-3-yl)acetyl-(S)-phenylalanyl-(S)-leucyl)amino-5-cyclohexyl-3-(S)-hydroxypentanoic acid isobutylamide hemihydrate], for which the pIC50 is 7.30.
As for `CC(C)CNC(=O)C[C@H](O)[C@H](CC1CCCCC1)NC(=O)[C@H](CC(C)C)NC(=O)[C@H](Cc1ccccc1)NC(=O)CC1COc2ccc([N+](=O)[O-])cc21` (stereo partly drawn) [E 5, 4-(S)-((5-Nitro-2,3-dihydrobenzofuran-3-yl)acetyl-(S)-phenylalanyl-(S)-leucyl)amino-5-cyclohexyl-3-(S)-hydroxypentanoic acid isobutylamide hemihydrate], the figure is 7.22.
Consider `CC(C)CNC(=O)C[C@H](O)[C@H](CC1CCCCC1)NC(=O)[C@H](CC(C)C)NC(=O)[C@H](Cc1ccccc1)NC(=O)CC1COc2ccc(N)cc21` (stereo partly drawn) [E 6, 4-(S)-((5-Amino-2,3-dihydrobenzofuran-3-yl)acetyl-(S)-phenylalanyl-(S)-leucyl)amino-5-cyclohexyl-3-(S)-hydroxypentanoic acid isobutylamide trifluoroacetate hemihydrate], for which the pIC50 was 7.52.
In the case of `CC(C)CNC(=O)C[C@H](O)[C@H](CC1CCCCC1)NC(=O)[C@H](CC(C)C)NC(=O)[C@H](Cc1ccccc1)NC(=O)CC1COc2ccc(NC(N)=O)cc21` (stereo partly drawn) [E 7, 4-(S)-((5-Ureido-2,3-dihydrobenzofuran-3-yl)acetyl-(S)-phenylalanyl-(S)-leucyl)amino-5-cyclohexyl-3-(S)-hydroxypentanoic acid isobutylamide dihydrate], the pIC50 was 7.30.
On to `CNS(=O)(=O)c1ccc2c(c1)C(CC(=O)N[C@@H](Cc1ccccc1)C(=O)N[C@@H](CC(C)C)C(=O)N[C@@H](CC1CCCCC1)[C@@H](O)CC(=O)NCC(C)C)CO2` (stereo partly drawn) [E 9, 4 (S)-((5-(Methylaminosulphonyl)-2,3-dihydrobenzofuran-3-yl)acetyl-(S)-phenylalanyl-(S)-leucyl)amino-5-cyclohexyl-3-(S)-hydroxypentanoic acid isobutylamide], for which the pIC50 is 7.30.
As to `CC(C)CNC(=O)C[C@H](O)[C@H](CC1CCCCC1)NC(=O)[C@H](CC(C)C)NC(=O)[C@H](Cc1ccccc1)NC(=O)CC1CS(=O)(=O)c2ccccc21` (stereo partly drawn) [Example E12, 4-(S)-((2,3-Dihydro-1,1-dioxobenzothiophene-3-yl)acetyl-(S)-phenylalanyl-(S)-leucyl)amino-5-cyclohexyl-3-(S)-hydroxypentanoic acid isobutylamide], the pIC50 was 8.00.
As for `CC(C)CNC(=O)C[C@H](O)[C@H](CC1CCCCC1)NC(=O)[C@H](CC(C)C)NC(=O)[C@H](Cc1ccccc1)NC(=O)CC1COc2ccc(CN)cc21` (stereo partly drawn) [Example E20a, 4-(S)-((5-(Aminomethyl)-2,3-dihydrobenzofuran-3-yl)acetyl-(S)-phenylalanyl-(S)-leucyl)amino-5-cyclohexyl-3-(S)-hydroxypentanoic acid isobutylamide hemi(trichloromethanate)], the figure is 7.52.
As for `CC(C)CNC(=O)C[C@H](O)[C@H](CC1CCCCC1)NC(=O)[C@H](Cc1cnc[nH]1)NC(=O)[C@H](Cc1ccccc1)NC(=O)CC1COc2ccc(C(=O)OCc3ccccc3)cc21` (stereo partly drawn) [Example E23, 4-(S)-((5-Benzyloxycarbonyl)-2,3-dihydrobenzofuran-3-yl)acetyl-(S)-phenylalanyl-(S)-histidyl)amino-5-cyclohexyl-3-(S)-hydroxypentanoic acid isobutylamide hemihydrate], the pIC50 is 6.33.
With `CC(C)CNC(=O)C[C@H](O)[C@H](CC1CCCCC1)NC(=O)[C@H](CC(C)C)NC(=O)[C@H](Cc1ccccc1)NC(=O)CC1CS(=O)(=O)c2cc(N)ccc21` (stereo partly drawn) [Example E29, 4-(S)-((6-Amino-2,3-dihydro-1,1-dioxobenzothiophene-3-yl)acetyl-(S)-phenylalanyl-(S)-leucyl)amino-5-cyclohexyl-3-(S)-hydroxypentanoic acid isobutylamide dihydrate], the pIC50 was 8.00.
As to `CC(C)CNC(=O)C[C@H](O)[C@H](CC1CCCCC1)NC(=O)[C@H](CC(C)C)NC(=O)[C@H](Cc1ccccc1)NC(=O)CC1CS(=O)(=O)c2cc(CN)ccc21` (stereo partly drawn) [Example E31a, 4-(S)-((6-Aminomethyl-2,3-dihydro-1,1-dioxobenzothiophene-3-yl)acetyl-(S)-phenylalanyl-(S)-leucyl)amino-5-cyclohexyl-3-(S)-hydroxypentanoic acid isobutylamide dihydrate], the pIC50 was 8.10.
As for `CC(C)CNC(=O)C[C@H](O)[C@H](CC1CCCCC1)NC(=O)[C@H](CC(C)C)NC(=O)[C@H](Cc1ccccc1)NC(=O)CC1COc2ccc(CNCC(=O)O)cc21` (stereo partly drawn) [Example E36a, 4-(S)-((5-(Carboxymethylaminomethyl)-2,3-dihydrobenzofuran-3-yl)acetyl-(S)-phenylalanyl-(S)-leucyl)amino-5-cyclohexyl-3-(S)-hydroxvoentanoic acid isobutylamide], the pIC50 was 7.00.
`CC(C)CNC(=O)C[C@H](O)[C@H](CC1CCCCC1)NC(=O)[C@H](Cc1c[nH]cn1)NC(=O)[C@H](Cc1ccccc1)NC(=O)CC1COc2ccc([N+](=O)[O-])cc21` (stereo partly drawn) [Example E39, 4-(S)-((5-Nitro-2,3-dihydrobenzofuran-3-yl)acetyl-(S)-phenylalanyl-(S)-histidyl)amino-5-cyclohexyl-3-(S)-hydroxypentanoic acid isobutylamide hydrate]: the pIC50 was 7.40.
Consider `CC(C)CNC(=O)C[C@H](O)[C@H](CC1CCCCC1)NC(=O)[C@H](CC(C)C)NC(=O)[C@H](Cc1ccccc1)NC(=O)CC1COc2ccc(S(=O)(=O)CC(=O)OC(C)(C)C)cc21` (stereo partly drawn) [Example E43, 4-(S)-((5-(tert-Butoxycarbonylmethanesulphonyl)-2,3-dihydrobenzofuran-3-yl)acetyl)-(S)-phenylalanyl-(S)-leucyl)amino-5-cyclohexyl-3-(S)-hydroxypentanoic acid isobutylamide hemihydrate], for which the pIC50 was 8.10.
Turning to `CC(C)CNC(=O)C[C@H](O)[C@H](CC1CCCCC1)NC(=O)[C@H](CC(C)C)NC(=O)[C@H](Cc1ccccc1)NC(=O)CC1CS(=O)(=O)c2ccc(C#N)cc21` (stereo partly drawn) [Example E45, 4-(S)-((5-Cyano-2,3-dihydro-1,1-dioxobenzothiophene-3-yl)acetyl-(S)-phenylalanyl-(S)-leucyl)amino-5-cyclohexyl-3-(S)-hydroxypentanoic acid isobutylamide], the pIC50 is 8.05.
As for `CC(C)CNC(=O)C[C@H](O)[C@H](CC1CCCCC1)NC(=O)[C@H](CC(C)C)NC(=O)[C@H](Cc1ccccc1)NC(=O)CC1CS(=O)(=O)c2ccc(CN)cc21` (stereo partly drawn) [Example E50, 4-(S)-((5-Aminomethyl-2,3-dihydro-1,1-dioxobenzothiophene-3-yl)acetyl-(S)-phenylalanyl-(S)-leucyl)amino-5-cyclohexyl-3-(S)-hydroxypentanoic acid isobutylamide], the figure is 8.00; as for `CC(C)CNC(=O)C[C@H](O)[C@H](CC1CCCCC1)NC(=O)[C@H](CC(C)C)NC(=O)[C@H](Cc1ccccc1)NC(=O)CC1COc2ccc(S(=O)(=O)CC(=O)O)cc21` (stereo partly drawn) [Example E56, 4-(S)-((5-(Carboxymethanesulphonyl)-2,3-dihydrobenzofuran-3-yl)acetyl-(S)-phenylalanyl-(S)-leucyl)amino-5-cyclohexyl-3-(S)-hydroxypentanoic acid isobutylamide, sodium salt], 7.22; as for `CC(C)CNC(=O)C[C@H](O)[C@H](CC1CCCCC1)NC(=O)[C@H](Cc1cnc[nH]1)NC(=O)[C@H](Cc1ccccc1)NC(=O)CC1CS(=O)(=O)c2cc(CN)ccc21` (stereo partly drawn) [Example E60, 4-(S)-((6-Aminomethyl-2,3-dihydro-1,1-dioxobenzothiophene-3-yl)acetyl-(S)-phenylalanyl-(S)-histidyl)amino-5-cyclohexyl-3-(S)-hydroxypentanoic acid isobutylamide bis(trifluoroacetate) sesquihydrate], 7.40.
